One series concerns the target T1, human FSH receptor (Homo sapiens, UniProt P23945).
T1 construct: expressed in transfected cells
T1 sequence (P23945 18-695): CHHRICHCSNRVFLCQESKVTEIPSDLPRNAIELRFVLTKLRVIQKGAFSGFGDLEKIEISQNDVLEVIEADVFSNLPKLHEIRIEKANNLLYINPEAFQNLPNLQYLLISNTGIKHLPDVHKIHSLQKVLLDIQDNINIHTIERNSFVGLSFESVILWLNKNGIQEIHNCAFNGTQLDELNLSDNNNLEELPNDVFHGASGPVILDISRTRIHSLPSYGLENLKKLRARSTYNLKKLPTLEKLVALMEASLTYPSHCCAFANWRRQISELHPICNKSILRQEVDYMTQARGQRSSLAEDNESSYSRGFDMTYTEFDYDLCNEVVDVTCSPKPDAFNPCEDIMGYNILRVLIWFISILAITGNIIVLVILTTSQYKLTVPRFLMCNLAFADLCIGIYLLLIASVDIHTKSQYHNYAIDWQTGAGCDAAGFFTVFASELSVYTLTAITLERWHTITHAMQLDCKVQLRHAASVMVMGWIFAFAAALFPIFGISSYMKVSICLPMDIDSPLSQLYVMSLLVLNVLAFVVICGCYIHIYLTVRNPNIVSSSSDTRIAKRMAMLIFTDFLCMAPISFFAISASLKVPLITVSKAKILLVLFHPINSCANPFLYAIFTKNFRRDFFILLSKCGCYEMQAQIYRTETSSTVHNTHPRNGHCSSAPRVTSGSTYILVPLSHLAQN
Description: hFSHRago (CHO luc): agonistic activity at the human FSH receptor expressed in CHO cells, CRE-luciferase reporter. It is filed as cell-based. The following applies: CHO cells stably transfected with human FSH receptor and CRE/luciferase reporter; 4 hours of incubation. In general terms: In a reporter assay the amount or activity of a reporter protein is the signal.

Broadly, the EC50 is the concentration needed to bring the measured effect to its halfway point. A higher EC50 goes with a need for much substance. By melting point is commonly meant the temperature, or range, at which the solid turns liquid.

`COc1cc2c(cc1C(=O)Nc1nncs1)-c1c(-c3cccs3)cc(C(=O)N(C)C(C)(C)C)n1CC2` [Example 123, 8-Methoxy-1-thiophen-2-yl-5,6-dihydro-pyrrolo[2,1-α]isoquinoline-3,9-dicarboxylic acid 3-(tert-butyl-methyl-amide) 9-[1,3,4]thiadiazol-2-ylamide]: the melting point was in the range of 149 to 152 °C. Besides, the EC50 at human FSH receptor is 1 nM.
